Literature values as cited in patent US20210339043A1, “NEURAL STIMULATION VIA VISUAL STIMULATION” (Cognito Therapeutics, Inc., priority 2016, published 2021).

Details: 70 kg adult; for estimated absorbed radiation dose, Adrenals: organ: Adrenals; for estimated absorbed radiation dose, Brain: organ: Brain; for estimated absorbed radiation dose, Breasts: organ: Breasts; for estimated absorbed radiation dose, Heart Wall: organ: Heart Wall; for estimated absorbed radiation dose, Kidneys: organ: Kidneys; for estimated absorbed radiation dose, Lungs: organ: Lungs; for estimated absorbed radiation dose, Muscle: organ: Muscle; for estimated absorbed radiation dose, Ovaries: organ: Ovaries; for estimated absorbed radiation dose, Pancreas: organ: Pancreas; for estimated absorbed radiation dose, Red marrow: organ: Red marrow; for estimated absorbed radiation dose, Skin: organ: Skin; for estimated absorbed radiation dose, Spleen: organ: Spleen; for estimated absorbed radiation dose, Testes: organ: Testes; for estimated absorbed radiation dose, Thymus: organ: Thymus; for estimated absorbed radiation dose, Thyroid: organ: Thyroid; for estimated absorbed radiation dose, Urinary bladder wall: organ: Urinary bladder wall; for estimated absorbed radiation dose, Uterus: organ: Uterus

estimated absorbed radiation dose, Adrenals	estimated absorbed radiation dose, Brain	estimated absorbed radiation dose, Breasts	estimated absorbed radiation dose, Heart Wall	estimated absorbed radiation dose, Kidneys	estimated absorbed radiation dose, Lungs	estimated absorbed radiation dose, Muscle	estimated absorbed radiation dose, Ovaries	estimated absorbed radiation dose, Pancreas	estimated absorbed radiation dose, Red marrow	estimated absorbed radiation dose, Skin	estimated absorbed radiation dose, Spleen	estimated absorbed radiation dose, Testes	estimated absorbed radiation dose, Thymus	estimated absorbed radiation dose, Thyroid	estimated absorbed radiation dose, Urinary bladder wall	estimated absorbed radiation dose, Uterus	Compound	other results
0.05 rad/mCi	0.037 rad/mCi	0.023 rad/mCi	0.048 rad/mCi	0.048 rad/mCi	0.032 rad/mCi	0.032 rad/mCi	0.065 rad/mCi	0.053 rad/mCi	0.053 rad/mCi	0.022 rad/mCi	0.033 rad/mCi	0.025 rad/mCi	0.027 rad/mCi	0.025 rad/mCi	0.1 rad/mCi	0.058 rad/mCi	CNc1ccc(/C=C/c2ccc(OCCOCCOCC[18F])nc2)cc1 [18F-AV-45]	
0.048 rad/mCi	0.07 rad/mCi	0.034 rad/mCi	0.22 rad/mCi	0.074 rad/mCi	0.064 rad/mCi	0.039 rad/mCi	0.053 rad/mCi	0.096 rad/mCi	0.047 rad/mCi	0.03 rad/mCi	0.14 rad/mCi	0.041 rad/mCi	0.044 rad/mCi	0.039 rad/mCi	0.32 rad/mCi	0.062 rad/mCi	OC[C@H]1O[C@@H](O)[C@H]([18F])[C@@H](O)[C@@H]1O [FDG]	critical organ (radiation dose): urinary bladder wall, followed by heart, spleen and pancreas; estimated absorbed radiation dose, Gallbladder Wall (organ: Gallbladder Wall): 0.049 rad/mCi; estimated absorbed radiation dose, Liver (organ: Liver): 0.058 rad/mCi; estimated absorbed radiation dose, Lower Large Intestine Wall (organ: Lower Large Intestine Wall): 0.051 rad/mCi; estimated absorbed radiation dose, Small Intestine (organ: Small Intestine): 0.047 rad/mCi; estimated absorbed radiation dose, Upper Large Intestine Wall (organ: Upper Large Intestine Wall): 0.046 rad/mCi
